The record followed here is the supplement of paper PMC10702517.

The nature of the data set: chemical recovery from spiked human plasma; higher = better extraction. To be noted: pooled human plasma.
[1] abbreviates: extraction method: SPE only (HLB 96-well), PES comparison experiment.
The mark [2] stands for this setting: extraction method: SPE only (HLB 96-well).
The mark [3] stands for this setting: extraction method: solvent precipitation (ACN + hexane).
Setting [4] is: extraction method: PES+SPE (3 d PDMS equilibration then HLB SPE).

± gives the standard deviation.

In turn, `CC(=O)OCC(=O)[C@@]1(O)CC[C@H]2[C@@H]3CCC4=CC(=O)CC[C@]4(C)[C@H]3[C@@H](O)C[C@@]21C` [Hydrocortisonacetate] showed a chemical recovery under setting [1] of 47.4 ± 6.2%.

Under setting [1], `CCN(CCO)CCCC(C)Nc1ccnc2cc(Cl)ccc12` (stereo unspecified) [Hydroxychloroquine] came in with a chemical recovery of 9.45 ± 7.5%.

As to `N=C1NCCN1Cc1ccc(Cl)nc1` [Imidacloprid-guanidine], the chemical recovery by setting is: under setting [2], 26.9 ± 4.3%; under setting [3], 73 ± 3%.

As to `O=C(O)Cc1c[nH]c2ccccc12` [Indole-3-acetic acid], the chemical recovery under setting [1] came to 79.9 ± 19%.

Regarding `O=C(O)/C=C/c1c[nH]c2ccccc12` [Indole-3-acrylic-acid], the chemical recovery was 37.5 ± 5% under setting [4] and 45.2 ± 13% under setting [2].

In the case of `c1ccc2[nH]ccc2c1` [Indole], the chemical recovery came to 8.76 ± 5.2% under setting [2] and 52.5 ± 14% under setting [3].

For `CC(C)C1CCC(Cc2ccc(Cl)cc2)C1(O)Cn1cncn1` (stereo unspecified) [Ipconazole], the chemical recovery under setting [4] worked out at 56.7 ± 6%, the chemical recovery under setting [2] came out at 45.5 ± 5.7% and the chemical recovery under setting [3] was found to be 75.8 ± 5.9%.

On to `CC(C)NC(=O)N1CC(=O)N(c2cc(Cl)cc(Cl)c2)C1=O` [Iprodione], for which the chemical recovery under setting [2] came to 28.3 ± 5.6% and the chemical recovery under setting [3] amounted to 6.49 ± 2.1%.

As for `CCC(Cc1ccccc1)(C(=O)c1ccc(N2CCOCC2)cc1)N(C)C` (stereo unspecified) [Irgacure-369], the chemical recovery is, setting by setting: under setting [4], 19.4 ± 3.7%; under setting [2], 36.8 ± 1.1%; under setting [3], 77.2 ± 5.5%.

Compound `CCCCCCCCSc1nc(Nc2cc(C(C)(C)C)c(O)c(C(C)(C)C)c2)nc(SCCCCCCCC)n1` [Irganox-565] yielded a chemical recovery under setting [2] of 0.236 ± 0.16%.

Consider `CC(C)(C)c1cc(CCC(=O)NCCCCCCNC(=O)CCc2cc(C(C)(C)C)c(O)c(C(C)(C)C)c2)cc(C(C)(C)C)c1O` [Irganox-1098], for which the chemical recovery under setting [3] is 55.3 ± 6.4%.

Regarding `O=C(O)c1cccc(C(=O)O)c1` [Isophthalic-acid], under setting [3], the chemical recovery came to 12.5 ± 5.4%.

Consider `CC(C)C1C2CCC1c1c(NC(=O)c3cn(C)nc3C(F)F)cccc12` (stereo unspecified) [Isopyrazam], for which the chemical recovery under setting [4] amounted to 56.7 ± 6.3%, the chemical recovery under setting [2] was 42.1 ± 4.9% and the chemical recovery under setting [3] was found to be 72.1 ± 4.6%.

Take `CC[C@H](C)[C@H]1O[C@]2(CC[C@@H]1C)C[C@@H]1C[C@@H](C/C=C(\C)[C@@H](O[C@H]3C[C@H](OC)[C@@H](O[C@H]4C[C@H](OC)[C@@H](O)[C@H](C)O4)[C@H](C)O3)[C@@H](C)/C=C/C=C3\CO[C@@H]4[C@H](O)C(C)=C[C@@H](C(=O)O1)[C@]34O)O2` [Ivermectin B1a]: under setting [1], the chemical recovery came to 16.6 ± 4.9%.

For the compound `CC[C@H](C)[C@H]1O[C@]2(CC[C@@H]1C)C[C@@H]1C[C@@H](C/C=C(\C)[C@@H](O[C@H]3C[C@H](OC)[C@@H](O[C@H]4C[C@H](OC)[C@@H](O)[C@H](C)O4)[C@H](C)O3)[C@@H](C)/C=C/C=C3\CO[C@@H]4[C@H](O)C(C)=C[C@@H](C(=O)O1)[C@]34O)O2` [Ivermectin-B1a], the chemical recovery is 11.5 ± 2.3% under setting [2] and 30.3 ± 2.3% under setting [3].

`CNC1(c2ccccc2Cl)CCCCC1=O` (stereo unspecified) [Ketamine]: the chemical recovery under setting [4] stood at 10.8 ± 4.5%, the chemical recovery under setting [2] was 32.2 ± 2.1%, the chemical recovery under setting [1] turned out to be 45.4 ± 6.8% and the chemical recovery under setting [3] was determined as 59 ± 2.7%.

As to `N[C@@H](Cc1cc(I)c(Oc2cc(I)c(O)c(I)c2)c(I)c1)C(=O)O` [L-Thyroxine], the chemical recovery is, setting by setting: under setting [4], 50.6 ± 7.1%; under setting [2], 36.5 ± 3.8%; under setting [3], 30.8 ± 3.3%.

For the compound `CCCCCCCCCCCCOC(=O)c1cc(O)c(O)c(O)c1` [Lauryl-gallate], the chemical recovery under setting [2] is 21.9 ± 6.3%.

Turning to `CC[C@@H](C(N)=O)N1CCCC1=O` [Levetiracetam], the chemical recovery was 21.4 ± 8.7% under setting [2] and 78 ± 3.8% under setting [3].

`CCN(CC)CC(=O)Nc1c(C)cccc1C` [Lidocaine]: the chemical recovery by setting is: under setting [4], 1.08 ± 0.9%; under setting [2], 37.5 ± 7.4%; under setting [1], 42.3 ± 6.8%; under setting [3], 67.9 ± 4.2%.

As to `CCC[C@@H]1C[C@@H](C(=O)N[C@@H]([C@H]2O[C@H](SC)[C@H](O)[C@@H](O)[C@H]2O)[C@@H](C)O)N(C)C1` [Lincomycin], the chemical recovery by setting is: under setting [1], 42.1 ± 11%; under setting [3], 74.7 ± 4.9%.

For the compound `CON(C)C(=O)Nc1ccc(Cl)c(Cl)c1` [Linuron], the chemical recovery is, setting by setting: under setting [4], 46.9 ± 7.1%; under setting [2], 50.1 ± 0.84%; under setting [1], 50.2 ± 7.8%; under setting [3], 69.6 ± 2.5%.

Consider `C[C@@H](O)CCCCn1c(=O)c2c(ncn2C)n(C)c1=O` [Lisofylline], for which the chemical recovery by setting is: under setting [4], 42.8 ± 3.6%; under setting [2], 35.7 ± 3.2%; under setting [3], 76.1 ± 3.5%.

Take `Cc1cc(Cl)ccc1OCCCC(=O)O` [MCPB]: the chemical recovery worked out at 44.6 ± 2% under setting [4], 35.9 ± 1.6% under setting [2] and 66.9 ± 4.5% under setting [3].

Consider `C#CCOc1ccc(CCNC(=O)C(OCC#C)c2ccc(Cl)cc2)cc1OC` (stereo unspecified) [Mandipropamid], for which the chemical recovery reads like this: under setting [4], 70.3 ± 10%; under setting [2], 58.4 ± 2.1%; under setting [3], 82.4 ± 3.2%.

Turning to `Nc1nc(N)nc(N)n1` [Melamine], the chemical recovery came out at 2.47 ± 0.79% under setting [4], 1.58 ± 0.33% under setting [2] and 0.589 ± 1.2% under setting [1].

Regarding `COc1ccc2[nH]cc(CCNC(C)=O)c2c1` [Melatonin], the chemical recovery under setting [4] is 37.8 ± 2.6%, the chemical recovery under setting [2] was found to be 41.7 ± 7.2% and the chemical recovery under setting [3] came to 74.6 ± 2.9%.

With `CC1CCN(CCCC(=O)c2ccc(F)cc2)CC1` [Melperon], the chemical recovery by setting is: under setting [4], 0.434 ± 0.15%; under setting [2], 35.9 ± 3%; under setting [1], 48.8 ± 6.8%; under setting [3], 61 ± 4.4%.

As to `CC#Cc1cc(C)nc(Nc2ccccc2)n1` [Mepanipyrim], the chemical recovery under setting [3] is 70.7 ± 2.9%.

As to `C[N+]1(C)CCCCC1` [Mepiquat], the chemical recovery reads like this: under setting [4], 0.578 ± 0.063%; under setting [2], 0.813 ± 0.44%; under setting [1], 11.3 ± 9.5%; under setting [3], 108 ± 18%.

Take `COC(=O)c1ccc(CNS(C)(=O)=O)cc1S(=O)(=O)NC(=O)Nc1nc(OC)cc(OC)n1` [Mesosulfuron-methyl]: the chemical recovery under setting [4] was determined as 40.3 ± 5.8%, the chemical recovery under setting [2] amounted to 41.4 ± 2.8% and the chemical recovery under setting [3] worked out at 74.9 ± 5.7%.

For `Cc1nnc(-c2ccccc2)c(=O)[nH]1` [Metamitron-desamino], the chemical recovery runs as follows: under setting [4], 53 ± 3.3%; under setting [2], 49.5 ± 3.9%; under setting [3], 73.9 ± 3.2%.

As to `Cc1nnc(-c2ccccc2)c(=O)n1N` [Metamitron], the chemical recovery was found to be 53 ± 4.2% under setting [4], 46.3 ± 4.3% under setting [2], 92.5 ± 14% under setting [1] and 70.3 ± 0.41% under setting [3].

As to `Cc1cccc(C)c1N(Cn1cccn1)C(=O)CO` [Metazachlor-2-hydroxy], the chemical recovery under setting [4] was 49 ± 6.5%, the chemical recovery under setting [2] was 40.1 ± 3.3% and the chemical recovery under setting [3] was determined as 73.7 ± 3.7%.

Under setting [4], `C=C(C)C(N)=O` [Methacrylamide] came in with a chemical recovery of 0.198 ± 0.34%.

As for `CNC(=O)Oc1cc(C)c(S(C)(=O)=O)c(C)c1` [Methiocarb-sulfone], the chemical recovery came out at 0.129 ± 0.019% under setting [4] and 19.9 ± 1.6% under setting [2].

`Cc1cc(O)cc(C)c1[S+](C)[O-]` (stereo unspecified) [Methiocarb-sulfoxide-phenol]: the chemical recovery reads like this: under setting [4], 71.6 ± 6.9%; under setting [2], 47.4 ± 5.3%; under setting [3], 73.1 ± 4.4%.

Take `CNC(=O)Oc1cc(C)c(SC)c(C)c1` [Methiocarb]: the chemical recovery under setting [4] is 0.0787 ± 0.035%, the chemical recovery under setting [2] amounted to 32.8 ± 0.78% and the chemical recovery under setting [1] was determined as 0.163 ± 0.33%.

In the case of `COc1ccccc1OCC(O)COC(N)=O` (stereo unspecified) [Methocarbamol], the chemical recovery under setting [4] was 40.6 ± 2.7%, the chemical recovery under setting [2] was found to be 36.1 ± 3.5% and the chemical recovery under setting [3] stood at 70.6 ± 2%.

As to `CNC(=O)O/N=C(\C)SC` [Methomyl], the chemical recovery runs as follows: under setting [4], 50.6 ± 5%; under setting [2], 47.3 ± 1.8%; under setting [3], 75.8 ± 3.8%.

Take `CN(Cc1cnc2nc(N)nc(N)c2n1)c1ccc(C(=O)N[C@@H](CCC(=O)O)C(=O)O)cc1` [Methotrexate]: the chemical recovery stood at 60.3 ± 4% under setting [4], 60.1 ± 3.9% under setting [2] and 38.1 ± 4.1% under setting [1].

Take `COC(=O)CCc1cc(C(C)(C)C)c(O)c(C(C)(C)C)c1` [Methyl-3-(3,5-di-tert-butyl-4-hydroxyphenyl)propionate]: the chemical recovery was 24.9 ± 3.3% under setting [2] and 57.6 ± 7% under setting [3].

In the case of `Cn1sc(Cl)cc1=O` [Methylchloroisothiazolinone], the chemical recovery is 0.906 ± 0.2% under setting [2], 0.321 ± 0.64% under setting [1] and 0.0132 ± 0.023% under setting [3].

Regarding `CC(C)NCC(O)COc1ccc(CC(=O)O)cc1` (stereo unspecified) [Metoprolol acid], the chemical recovery under setting [4] turned out to be 41.1 ± 5%, the chemical recovery under setting [2] is 33.5 ± 2.9% and the chemical recovery under setting [3] amounted to 54.1 ± 9.1%.

Regarding `CC(C)NCC(O)COc1ccc(CC(=O)O)cc1` (stereo unspecified) [Metoprolol-acid], the chemical recovery under setting [2] amounted to 52.1 ± 13% and the chemical recovery under setting [3] stood at 47.1 ± 8.4%.

Take `COCCc1ccc(OCC(O)CNC(C)C)cc1` (stereo unspecified) [Metoprolol]: the chemical recovery came out at 21.9 ± 2.5% under setting [4], 36.2 ± 2.6% under setting [2], 44 ± 5.4% under setting [1] and 75.2 ± 2.3% under setting [3].

For the compound `COc1cc(C)c(C(=O)c2c(OC)ccc(Br)c2C)c(OC)c1OC` [Metrafenone], the chemical recovery under setting [2] was found to be 50.3 ± 9.1% and the chemical recovery under setting [3] amounted to 76.4 ± 4.6%.

Consider `Cc1ncc([N+](=O)[O-])n1CCO` [Metronidazole], for which the chemical recovery reads like this: under setting [2], 21.2 ± 3.4%; under setting [3], 70.6 ± 4.1%.

`CN1CCN2c3ncccc3Cc3ccccc3C2C1` (stereo unspecified) [Mirtazapine]: the chemical recovery under setting [4] worked out at 0.274 ± 0.11%, the chemical recovery under setting [2] was 30.4 ± 2.3%, the chemical recovery under setting [1] was determined as 29.9 ± 9.5% and the chemical recovery under setting [3] was 69.4 ± 3.5%.

In the case of `CC(C)COC(=O)c1ccccc1C(=O)O` [Mono-iso-butyl-phthalate], the chemical recovery by setting is: under setting [2], 44.7 ± 3.3%; under setting [3], 65.5 ± 6.9%.

As for `O=C(O)c1ccccc1C(=O)OCc1ccccc1` [Monobenzyl-phthalate], the chemical recovery amounted to 59.6 ± 9.9% under setting [4], 57.7 ± 4.3% under setting [2] and 65.3 ± 7.2% under setting [3].

Consider `CN(C)C(=O)Nc1ccc(Cl)cc1` [Monuron], for which the chemical recovery by setting is: under setting [4], 60.2 ± 3.6%; under setting [2], 49.6 ± 3.1%; under setting [3], 74.2 ± 1.8%.

`COc1c(C(C)(C)C)cc([N+](=O)[O-])c(C)c1[N+](=O)[O-]` [Musk ambrette] yielded a chemical recovery under setting [2] of 2.96 ± 0.74%.

As to `CC(=O)c1c(C)c([N+](=O)[O-])c(C(C)(C)C)c([N+](=O)[O-])c1C` [Musk ketone], the chemical recovery is, setting by setting: under setting [2], 1.17 ± 0.25%; under setting [3], 15.5 ± 3.3%.

On to `Cc1c([N+](=O)[O-])c(C)c([N+](=O)[O-])c(C(C)(C)C)c1[N+](=O)[O-]` [Musk xylene], for which the chemical recovery is 97.1 ± 31% under setting [2] and 33.5 ± 9.3% under setting [3].

Regarding `CCN(CC)c1ccccc1` [N,N-Diethylaniline], the chemical recovery was found to be 0.987 ± 1.6% under setting [4], 5.76 ± 3.4% under setting [2] and 0.0912 ± 0.079% under setting [3].

On to `CCCCCCCCCC(=O)N(C)C` [N,N-Dimethyldecan-1-amide], for which the chemical recovery stood at 27.7 ± 10% under setting [4] and 13.6 ± 0.95% under setting [2].
